# Calls of active or inactive are those of the source.
# Legend:
# [1] = decrease of insulin promoter-GFP reporter – imaging, high-content screening, mouse beta cells (AID 1628); assay type: functional; settings: MIN6
# [2] = HEK-293T viability loss after treatment – luminescence, T-cell screen hits, cytotoxicity control for TCR NF-kB inhibitor project, dose response (AID 489026); assay type: functional, cell-based;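 note: cells exposed to compound about 14 hours before the viability readout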
# [3] = MIN6 cell viability loss – mouse insulinoma, cytotoxicity control, dose response (AID 2122); assay type: functional;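 note: confirmatory high-throughput counterscreen run to flag cytotoxic compounds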
# [4] = target: T1, COUP transcription factor 2 (Homo sapiens, UniProt P24468); test: Luminescence-based cell-based high throughput dose response assay to identify inhibitors of COUP-TFII (NR2F2).; assay type: functional;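 note: HEK293 cells transiently cotransfected with COUP-TFII expression vector and reporter; luciferase reporter luminescence driven by COUP-TFII from the pX2-168 reporter plasmid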
# T1 sequence (P24468 whole entry): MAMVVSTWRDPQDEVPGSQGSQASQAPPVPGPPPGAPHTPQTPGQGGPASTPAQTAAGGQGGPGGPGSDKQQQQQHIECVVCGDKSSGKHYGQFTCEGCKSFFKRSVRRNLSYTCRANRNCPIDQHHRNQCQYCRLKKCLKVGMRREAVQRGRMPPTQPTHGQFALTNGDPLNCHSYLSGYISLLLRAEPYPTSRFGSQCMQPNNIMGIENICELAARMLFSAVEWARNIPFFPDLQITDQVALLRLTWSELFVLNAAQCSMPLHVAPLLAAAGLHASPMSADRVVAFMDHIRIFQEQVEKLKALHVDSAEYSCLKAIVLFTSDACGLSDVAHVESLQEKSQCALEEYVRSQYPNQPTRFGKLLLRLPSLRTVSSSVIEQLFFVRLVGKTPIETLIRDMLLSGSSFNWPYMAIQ
# Escherichia coli = test: microbe, parasite or virus in culture
# [5] = target: T2, Zinc finger protein mex-5 (Caenorhabditis elegans, UniProt Q9XUB2); test: potency of MEX-5 RNA-binding blockers – biochemical, C. elegans, fluorescence polarization, dose response (AID 1960)
# T2 sequence (Q9XUB2 whole entry): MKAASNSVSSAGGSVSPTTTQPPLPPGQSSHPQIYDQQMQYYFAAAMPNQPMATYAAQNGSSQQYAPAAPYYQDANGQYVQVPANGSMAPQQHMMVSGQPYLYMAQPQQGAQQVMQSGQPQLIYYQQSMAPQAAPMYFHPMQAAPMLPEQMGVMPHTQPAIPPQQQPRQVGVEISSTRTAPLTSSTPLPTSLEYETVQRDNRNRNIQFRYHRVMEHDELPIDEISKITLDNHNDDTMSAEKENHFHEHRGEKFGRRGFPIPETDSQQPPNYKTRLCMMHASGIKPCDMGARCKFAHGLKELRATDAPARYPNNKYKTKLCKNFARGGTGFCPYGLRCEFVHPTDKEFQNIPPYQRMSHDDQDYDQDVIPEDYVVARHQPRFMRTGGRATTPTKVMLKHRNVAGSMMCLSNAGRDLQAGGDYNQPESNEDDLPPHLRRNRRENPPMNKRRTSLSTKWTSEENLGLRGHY
# [6] = target: SWI/SNF-related matrix-associated actin-dependent regulator of chromatin subfamily A member 2 (Homo sapiens, UniProt P51531); test: Luminescence-based cell-based high throughput dose response assay to identify activators of the function of SWI/SNF related, matrix associated, actin dependent regulator of chromatin, subfamily a, member 2 (SMARCA2, BRM).; assay type: functional
# [7] = Counterscreen for activators of the function of SWI/SNF related, matrix associated, actin dependent regulator of chromatin, subfamily a, member 2 (SMARCA2, BRM): Luminescence-based cell-based high throughput dose response assay to identify non-selective compounds using the VP16 reporter assay.; assay type: functional
# [8] = target: DNA dC->dU-editing enzyme APOBEC-3G (Homo sapiens, UniProt Q9HC16); assay type: functional;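 note: Dose-response counterscreen measuring inhibition of APOBEC3G DNA deaminase activity, run while confirming APOBEC3A inhibitors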
# [9] = target: DNA dC->dU-editing enzyme APOBEC-3A (Homo sapiens, UniProt P31941); test: Dose Response confirmation of small molecule APOBEC3A DNA Deaminase Inhibitors via a fluorescence-based single-stranded DNA deaminase assay. [Related pubchem assays (depositor defined):AID493011, AID493024]; assay type: functional
# [10] = target: T3, RNA-binding protein pos-1 (Caenorhabditis elegans, UniProt G5EF15); test: disruptors of C. elegans POS-1 RNA interaction – biochemical, fluorescence polarization, dose response (AID 1964);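 note: purified POS-1 fused to maltose binding protein made in E. coli; potency of compounds blocking POS-1 binding to fluorescent RNA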
# T3 sequence (G5EF15 whole entry): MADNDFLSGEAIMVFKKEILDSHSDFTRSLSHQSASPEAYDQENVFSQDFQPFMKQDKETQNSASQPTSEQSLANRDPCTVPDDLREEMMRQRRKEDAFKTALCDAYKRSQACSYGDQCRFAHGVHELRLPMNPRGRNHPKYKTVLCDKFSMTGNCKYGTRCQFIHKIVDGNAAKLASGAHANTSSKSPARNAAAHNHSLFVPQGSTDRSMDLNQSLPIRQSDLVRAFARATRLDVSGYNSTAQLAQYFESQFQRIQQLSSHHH
# [11] = target: T4, Serine/threonine-protein phosphatase (Candida dubliniensis (strain CD36 / CBS 7987 / NCPF 3949 / NRRLY-17841) (Yeast), UniProt B9W6M3); test: blockers of CaCl2-induced CDRE-lacZ signaling – S. cerevisiae, luminescence, secondary, dose response (AID 2388); assay type: functional, cell-based;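 note: yeast reporter cells carrying a calcineurin-responsive lacZ construct stimulated with calcium chloride; luminescent beta-galactosidase reporter signal in whole cells rather than isolated phosphatase activity; potency for inhibition where a drop in reporter signal means calcineurin blockade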
# T4 sequence (B9W6M3 whole entry): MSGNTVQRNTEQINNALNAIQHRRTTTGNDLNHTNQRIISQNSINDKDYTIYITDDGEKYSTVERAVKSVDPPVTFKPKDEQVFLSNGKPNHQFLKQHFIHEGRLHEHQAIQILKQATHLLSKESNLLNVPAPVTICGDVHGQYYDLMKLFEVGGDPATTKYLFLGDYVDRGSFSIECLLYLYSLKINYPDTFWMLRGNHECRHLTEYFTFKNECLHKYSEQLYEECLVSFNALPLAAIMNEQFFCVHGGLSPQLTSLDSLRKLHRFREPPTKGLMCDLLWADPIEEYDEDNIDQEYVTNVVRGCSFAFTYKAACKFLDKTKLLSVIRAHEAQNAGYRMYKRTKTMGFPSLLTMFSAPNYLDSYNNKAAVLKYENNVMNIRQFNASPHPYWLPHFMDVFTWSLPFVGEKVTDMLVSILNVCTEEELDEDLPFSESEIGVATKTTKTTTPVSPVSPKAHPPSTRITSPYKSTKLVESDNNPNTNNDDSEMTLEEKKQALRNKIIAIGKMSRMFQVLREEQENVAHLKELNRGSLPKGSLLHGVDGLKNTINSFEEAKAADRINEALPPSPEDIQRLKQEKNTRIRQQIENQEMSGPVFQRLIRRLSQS
# [12] = NIH-3T3 fibroblast cytotoxicity, dose response, cytotoxicity control, cell-based, fluorescence, Alamar Blue, secondary assay (AID 2327); assay type: functional;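 note: NIH-3T3 mouse fibroblasts cultured with fluconazole at 8 µg/mL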
# [13] = target: ATP-dependent molecular chaperone HSP82 (Candida albicans (strain WO-1) (Yeast), UniProt C4YTQ8); test: steroid-induced GRE reporter decrease in yeast – S. cerevisiae, luminescence, Hsp90 inhibitor project, dose response (AID 2400); assay type: functional, cell-based;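 note: beta-galactosidase luminescence from glucocorticoid response element reporter as proxy for Hsp90 function; inhibitor potency where signal loss means Hsp90 inhibition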
# [14] = fluconazole-exposed Candida albicans growth modulators – fluorescence, retest, confirmation (AID 2467); assay type: functional, cell-based
# [15] = target: T5, Kappa-type opioid receptor (Homo sapiens, UniProt P41145); assay type: functional
# HEK293 [16] = test: cells; assay type: functional, cell-based; settings: Homo sapiens
# Streptococcus = test: GAS UMAA2166 growth inhibition – luminescence, BacTiterGlo, counter-screen for streptokinase expression inhibitor project, dose response (AID 1915); assay type: functional, organism-based;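 note: potency for reduction of bacterial viability or growth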
# [17] = target: Heat shock protein HSP 90-alpha (Homo sapiens, UniProt P07900); assay type: functional, organism-based
# [18] = tested on: Streptococcus sp. 'group A'; test: Streptococcus pyogenes SK(-)GAS viability under kanamycin – luminescence, BacTiterGlo, confirmation, counter-screen for streptokinase expression inhibitor project, dose response (AID 1900); assay type: functional, organism-based
# [19] = target: Nucleotide-binding oligomerization domain-containing protein 2 (Homo sapiens, UniProt Q9HC29); test: inhibition of NOD2-driven NF-kB reporter – cell-based, luminescence, uHTS, HEK293 (AID 1566); assay type: functional
# [20] = target: T5, Kappa-type opioid receptor; assay type: functional; remark: listed apart in the source
# HEK293 [21] = test: inhibition of NOD1-driven NF-kB reporter – cell-based, luminescence, uHTS, primary screen (AID 1578); assay type: functional; settings: Homo sapiens
# HEK293 [22] = test: cells; assay type: functional, cell-based; settings: Homo sapiens; remark: listed apart in the source
# [23] = DRD fibroblast viability loss – cell-based, non-viral oncogenic, luminescence, dose response (AID 1934); assay type: functional; settings: Homo sapiens
# INS1 = test: INS-1E survival protection against cytokine death – cell-based, luminescence, retest, dose response (AID 449756); assay type: functional; settings: Rattus norvegicus;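 note: cell death triggered by IL-1 beta plus TNF-alpha plus IFN-gamma mixture; protective hits raise ATP signal compared with cytokine alone wells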
# HEK293 [24] = test: cells; assay type: functional, cell-based; settings: Homo sapiens; remark: listed apart in the source
# HEK293 [25] = test: NOD2 signaling inhibitors in MDP-stimulated cells, cell-based, uHTS, luminescence (AID 2001); assay type: functional; settings: Homo sapiens
# BJ [26] = test: BJ-TERT fibroblast viability loss – cell-based, RAS-independent, luminescence, dose response (AID 1933); assay type: functional; settings: Homo sapiens
# BJ [27] = test: BJ-TERT-LT-ST fibroblast viability loss – cell-based, RAS-independent, luminescence, dose response (AID 1935); assay type: functional; settings: Homo sapiens;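 note: BJ fibroblasts immortalized with TERT plus LT and ST oncogenes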
# Beta-galactosidase = Beta-galactosidase (Escherichia coli, UniProt Q8VNN2); assay type: functional
# BJ [28] = test: cells; assay type: functional, cell-based; settings: Homo sapiens
# [29] = activation of miR-122 Renilla sensor silencing – cell-based, Huh7 psiCHECK-miR122, Renilla luciferase, cherry-picked, dose response (AID 651956); assay type: functional;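 note: huh7 hepatoma cells stably carrying a psiCHECK-2 miR-122 sensor plasmid; renilla luciferase signal reporting endogenous miR-122 activity after 48 h compound exposure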
# [30] = general mammalian cell viability loss – inhibitor set, cherry-pick, set 2, cytotoxicity control for miR-122 modulator project, dose response (AID 720697); assay type: functional, cell-based
# T5 sequence (P41145 whole entry): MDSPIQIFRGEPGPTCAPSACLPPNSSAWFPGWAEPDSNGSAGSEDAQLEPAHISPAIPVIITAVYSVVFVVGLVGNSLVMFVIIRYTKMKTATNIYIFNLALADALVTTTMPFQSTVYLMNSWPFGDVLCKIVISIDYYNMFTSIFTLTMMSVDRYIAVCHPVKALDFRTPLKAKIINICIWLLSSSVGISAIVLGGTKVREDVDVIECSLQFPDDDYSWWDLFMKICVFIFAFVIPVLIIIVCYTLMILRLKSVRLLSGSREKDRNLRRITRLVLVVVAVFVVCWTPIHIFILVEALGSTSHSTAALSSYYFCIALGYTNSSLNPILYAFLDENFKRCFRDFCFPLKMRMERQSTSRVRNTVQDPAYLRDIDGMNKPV
# Sequence of ATP-dependent molecular chaperone HSP82 (C4YTQ8 whole entry): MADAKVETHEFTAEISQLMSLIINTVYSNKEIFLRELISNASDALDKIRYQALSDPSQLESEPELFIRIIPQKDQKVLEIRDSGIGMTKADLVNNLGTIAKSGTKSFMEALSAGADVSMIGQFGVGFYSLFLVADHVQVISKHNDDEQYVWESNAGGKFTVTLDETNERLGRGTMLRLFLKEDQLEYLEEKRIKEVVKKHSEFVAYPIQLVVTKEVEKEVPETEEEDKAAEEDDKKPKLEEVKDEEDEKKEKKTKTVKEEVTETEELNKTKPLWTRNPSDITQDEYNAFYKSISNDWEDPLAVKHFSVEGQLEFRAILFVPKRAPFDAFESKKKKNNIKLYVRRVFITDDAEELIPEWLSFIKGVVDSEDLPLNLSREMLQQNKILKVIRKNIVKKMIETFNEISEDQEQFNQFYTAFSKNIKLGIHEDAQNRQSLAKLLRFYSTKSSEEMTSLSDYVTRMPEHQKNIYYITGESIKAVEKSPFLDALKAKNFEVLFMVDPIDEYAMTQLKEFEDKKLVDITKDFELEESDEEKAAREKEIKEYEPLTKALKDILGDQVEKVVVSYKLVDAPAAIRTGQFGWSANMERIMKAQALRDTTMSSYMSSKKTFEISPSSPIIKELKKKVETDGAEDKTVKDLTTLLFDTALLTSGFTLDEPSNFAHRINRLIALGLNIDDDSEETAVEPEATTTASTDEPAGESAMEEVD
# Sequence of Beta-galactosidase (Q8VNN2 whole entry): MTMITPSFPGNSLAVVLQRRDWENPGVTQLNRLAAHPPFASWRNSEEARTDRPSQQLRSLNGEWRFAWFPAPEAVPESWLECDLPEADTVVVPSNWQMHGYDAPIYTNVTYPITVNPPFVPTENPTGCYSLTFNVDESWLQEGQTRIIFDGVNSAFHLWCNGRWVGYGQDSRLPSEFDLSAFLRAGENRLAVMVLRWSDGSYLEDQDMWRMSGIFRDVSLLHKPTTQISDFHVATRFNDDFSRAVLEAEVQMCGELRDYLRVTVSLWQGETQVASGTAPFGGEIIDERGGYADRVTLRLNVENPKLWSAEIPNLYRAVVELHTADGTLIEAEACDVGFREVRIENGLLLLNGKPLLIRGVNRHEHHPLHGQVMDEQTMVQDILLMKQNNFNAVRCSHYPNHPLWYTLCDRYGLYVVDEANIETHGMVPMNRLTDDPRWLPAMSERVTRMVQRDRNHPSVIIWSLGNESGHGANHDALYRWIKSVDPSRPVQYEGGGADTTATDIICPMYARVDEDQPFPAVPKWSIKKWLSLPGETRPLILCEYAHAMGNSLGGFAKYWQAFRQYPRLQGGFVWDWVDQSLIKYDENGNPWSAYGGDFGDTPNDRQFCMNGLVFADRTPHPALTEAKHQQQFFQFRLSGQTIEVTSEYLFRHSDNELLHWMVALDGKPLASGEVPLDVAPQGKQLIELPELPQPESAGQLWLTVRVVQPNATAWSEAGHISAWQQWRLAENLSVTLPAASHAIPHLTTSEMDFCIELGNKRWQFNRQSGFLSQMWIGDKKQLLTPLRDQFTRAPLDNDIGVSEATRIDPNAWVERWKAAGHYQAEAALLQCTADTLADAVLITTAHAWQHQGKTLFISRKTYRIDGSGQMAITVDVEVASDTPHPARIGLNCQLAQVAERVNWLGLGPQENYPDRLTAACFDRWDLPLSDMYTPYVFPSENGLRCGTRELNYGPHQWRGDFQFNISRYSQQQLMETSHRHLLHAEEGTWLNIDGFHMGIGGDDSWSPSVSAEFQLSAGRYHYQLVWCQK
# Sequence of DNA dC->dU-editing enzyme APOBEC-3A (P31941 whole entry, the tested form may be a part): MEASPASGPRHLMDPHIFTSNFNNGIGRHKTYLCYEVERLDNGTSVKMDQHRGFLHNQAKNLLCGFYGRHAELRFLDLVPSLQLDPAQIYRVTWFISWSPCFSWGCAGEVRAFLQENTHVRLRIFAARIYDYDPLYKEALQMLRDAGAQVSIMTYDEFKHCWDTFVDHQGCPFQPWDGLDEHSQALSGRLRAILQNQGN
# Sequence of Nucleotide-binding oligomerization domain-containing protein 2 (Q9HC29 whole entry, the tested form may be a part): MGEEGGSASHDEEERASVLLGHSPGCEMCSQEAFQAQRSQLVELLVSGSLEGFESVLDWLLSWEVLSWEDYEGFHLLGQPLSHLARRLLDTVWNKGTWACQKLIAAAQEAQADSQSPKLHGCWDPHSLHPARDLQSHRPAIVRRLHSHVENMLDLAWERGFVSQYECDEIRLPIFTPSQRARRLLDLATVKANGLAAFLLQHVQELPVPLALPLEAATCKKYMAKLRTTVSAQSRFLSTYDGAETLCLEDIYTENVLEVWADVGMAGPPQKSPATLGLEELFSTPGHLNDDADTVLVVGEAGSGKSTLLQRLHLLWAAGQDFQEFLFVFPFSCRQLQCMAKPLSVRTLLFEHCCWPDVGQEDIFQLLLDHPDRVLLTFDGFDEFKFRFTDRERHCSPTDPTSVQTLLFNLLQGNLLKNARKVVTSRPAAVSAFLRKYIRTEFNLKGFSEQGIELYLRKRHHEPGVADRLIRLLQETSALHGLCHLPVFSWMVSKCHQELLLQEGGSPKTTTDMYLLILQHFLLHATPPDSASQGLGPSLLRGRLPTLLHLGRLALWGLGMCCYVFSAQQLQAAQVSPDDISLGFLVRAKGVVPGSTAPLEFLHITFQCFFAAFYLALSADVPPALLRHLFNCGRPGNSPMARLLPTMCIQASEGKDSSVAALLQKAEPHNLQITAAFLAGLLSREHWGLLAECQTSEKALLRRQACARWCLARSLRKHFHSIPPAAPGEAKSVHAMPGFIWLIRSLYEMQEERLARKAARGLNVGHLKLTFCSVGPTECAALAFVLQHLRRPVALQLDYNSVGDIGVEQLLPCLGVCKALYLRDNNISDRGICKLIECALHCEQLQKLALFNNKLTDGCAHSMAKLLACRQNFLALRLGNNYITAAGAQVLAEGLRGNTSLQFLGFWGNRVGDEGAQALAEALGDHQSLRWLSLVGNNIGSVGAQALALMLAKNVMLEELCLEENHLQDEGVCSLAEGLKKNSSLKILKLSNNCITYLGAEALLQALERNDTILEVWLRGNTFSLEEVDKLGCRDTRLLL
# Sequence of SWI/SNF-related matrix-associated actin-dependent regulator of chromatin subfamily A member 2 (P51531 whole entry): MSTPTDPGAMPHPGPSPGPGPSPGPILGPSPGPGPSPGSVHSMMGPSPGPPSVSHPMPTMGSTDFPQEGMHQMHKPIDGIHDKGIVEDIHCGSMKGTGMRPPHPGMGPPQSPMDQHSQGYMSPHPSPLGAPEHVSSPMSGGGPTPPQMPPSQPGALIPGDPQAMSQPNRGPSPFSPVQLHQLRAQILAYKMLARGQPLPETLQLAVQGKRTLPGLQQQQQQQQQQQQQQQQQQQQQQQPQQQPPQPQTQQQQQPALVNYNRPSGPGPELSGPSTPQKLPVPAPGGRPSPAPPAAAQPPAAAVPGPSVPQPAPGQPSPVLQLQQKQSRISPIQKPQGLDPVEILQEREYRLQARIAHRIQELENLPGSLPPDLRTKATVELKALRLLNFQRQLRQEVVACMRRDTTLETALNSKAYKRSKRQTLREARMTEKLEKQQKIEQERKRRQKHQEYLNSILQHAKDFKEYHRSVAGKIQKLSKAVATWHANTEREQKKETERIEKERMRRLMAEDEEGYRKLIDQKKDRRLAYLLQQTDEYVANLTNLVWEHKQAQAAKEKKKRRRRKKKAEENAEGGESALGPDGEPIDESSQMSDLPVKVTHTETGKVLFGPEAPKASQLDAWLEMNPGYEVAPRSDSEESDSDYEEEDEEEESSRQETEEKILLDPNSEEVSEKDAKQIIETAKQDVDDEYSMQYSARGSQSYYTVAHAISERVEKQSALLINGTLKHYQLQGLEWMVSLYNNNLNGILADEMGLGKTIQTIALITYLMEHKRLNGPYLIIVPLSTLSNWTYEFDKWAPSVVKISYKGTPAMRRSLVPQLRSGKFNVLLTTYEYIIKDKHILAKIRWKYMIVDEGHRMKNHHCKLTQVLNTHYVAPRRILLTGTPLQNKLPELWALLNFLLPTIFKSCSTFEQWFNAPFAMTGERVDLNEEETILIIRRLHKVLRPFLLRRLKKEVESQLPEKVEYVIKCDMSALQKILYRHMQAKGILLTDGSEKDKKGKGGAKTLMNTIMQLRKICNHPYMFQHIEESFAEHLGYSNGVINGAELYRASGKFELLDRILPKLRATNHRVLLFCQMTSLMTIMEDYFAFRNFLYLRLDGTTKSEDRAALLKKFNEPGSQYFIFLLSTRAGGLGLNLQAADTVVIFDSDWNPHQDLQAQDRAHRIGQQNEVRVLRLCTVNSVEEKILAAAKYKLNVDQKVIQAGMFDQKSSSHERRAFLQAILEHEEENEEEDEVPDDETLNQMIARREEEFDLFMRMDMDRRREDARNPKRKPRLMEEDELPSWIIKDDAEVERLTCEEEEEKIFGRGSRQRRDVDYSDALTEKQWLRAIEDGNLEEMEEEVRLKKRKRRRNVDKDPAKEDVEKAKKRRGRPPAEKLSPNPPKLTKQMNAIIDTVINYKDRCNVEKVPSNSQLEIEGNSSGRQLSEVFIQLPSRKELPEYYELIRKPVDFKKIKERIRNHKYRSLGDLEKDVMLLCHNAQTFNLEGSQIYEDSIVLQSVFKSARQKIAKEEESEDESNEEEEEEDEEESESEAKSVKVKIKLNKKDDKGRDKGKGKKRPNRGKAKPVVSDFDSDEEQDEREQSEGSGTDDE
smiles,measurement,setting,value
CCCCn1c2c(c(=N)c3c1CCC3)CCC2,IC50,[1],1.47 µM (active)
same,IC50,[2],> 80 µM (inactive)
same,IC50,[3],1.97 µM (active)
same,IC50,[4],19.1 µM (inactive)
CCO/C(O)=C1\C(C)=NC(=S)NC1c1cc(C)sc1C (stereo not drawn),AC50,Escherichia coli,147 µM (active)
Cc1ccc(N=Nc2[nH]c3ccccc3c2O)cc1,EC50,[5],25.7 µM (inconclusive)
same,EC50,[6],> 91.1 µM (inactive)
same,EC50,[7],> 91.1 µM (inactive)
same,IC50,[8],7.69 µM (active)
same,IC50,[9],4.8 µM (active)
same,EC50,[10],16 µM (active)
CCSc1nnc(-c2ccc(C)cc2)c2ccccc12,EC50,[11],24.7 µM (active)
same,EC50,[12],17.2 µM (active)
same,EC50,[13],62.4 µM (active)
same,EC50,[14],0.305 µM (active)
COCCn1c(-c2cccc([N+](=O)[O-])c2)nc2c1c(=O)[nH]c(=O)n2Cc1ccccc1,AC50,Escherichia coli,> 380 µM (inactive)
COc1cccc(N=Nc2ccc3cccnc3c2O)c1,IC50,[15],5.92 µM (active)
same,IC50,HEK293 [16],> 20 µM (inactive)
same,EC50,[11],> 180 µM (inactive)
same,EC50,Streptococcus,2.53 µM (active)
same,EC50,[12],87.8 µM (active)
same,AC50,[17],5.71 µM (active)
same,EC50,[18],0.068 µM (active)
same,EC50,[19],> 20 µM (inactive)
same,IC50,[20],> 32 µM
same,EC50,HEK293 [21],> 20 µM (inactive)
same,IC50,HEK293 [22],> 20 µM (inactive)
same,EC50,[23],10.5 µM (active)
same,AC50,INS1,2.26 µM (active)
same,IC50,HEK293 [24],5.21 µM (active)
same,IC50,HEK293 [25],3.15 µM (inactive)
same,EC50,BJ [26],6.69 µM (inconclusive)
same,EC50,BJ [27],3.73 µM (inconclusive)
same,EC50,Beta-galactosidase,22 µM (active)
same,EC50,[13],4.9 µM (active)
same,EC50,[14],0.619 µM (active)
same,EC50,BJ [28],16.9 µM (inconclusive)
Cc1nnc(C)c2c(C)n(C(C)c3ccccc3)c(C)c12 (stereo not drawn),IC50,[1],2.5 µM (active)
same,IC50,[3],2.6 µM (active)
COc1cc(-c2nnc3sc(C4CCCCC4)nn23)cc(OC)c1OC,IC50,[1],0.981 µM (active)
same,AC50,[29],55.5 µM (active)
same,AC50,[30],1.08 µM (active)
same,IC50,[3],9.75 µM (active)

# Reference: ChEMBL document CHEMBL1201862, “PubChem BioAssay data set” (2004)
